Laboratory results published in US20110028401A1, “CRIPTO BLOCKING MOLECULES AND THERAPEUTIC USES THEREOF” (CONSIGLIO NAZIONALE DELLE RICERCHE, priority 2009, published 2011).

Assays:
Cripto/ALK-4 interaction = target: T1, Cripto/ALK-4 interaction (Mus musculus, UniProt P51865); test: ELISA-based competition assay of Cripto/ALK-4 interaction; format: binding
T1 construct: the displacement of soluble recombinant Cripto from coated ALK-4 by the peptide pools was evaluated
Procedure: To improve the overall solubility of the resulting mixtures, D-Glutamic (D-Glu), corresponding to building block 4 (Table S1) was initially chosen as the common, N-terminal residue. The total complexity of the library was therefore of 30^2=900 different peptides. In the first step of, the deconvolution process, the peptide pools were tested with a molar excess of 30000-fold (calculated for each single peptide) over Cripto (8.6×10^−10 M; FIG. 2. S1). Once identified an active pool(s), a dose-dependent inhibition using 200-, 500-, 1000-, 5000-, 12500 and 30000 fold excess was performed to confirm the inhibitory property (FIG. 3. S2). The first active pool selected was that labelled as 4-23-X (X indicated random positions), where “23” identified the amino acid L-Cysteine(S-benzyl) [L-Cys(Bzl)] (FIG. 3. S2). […] To finally investigate the N-terminal position, where D-Glu was initially arbitrarily placed, 30 single peptides labelled as B-23-23 were synthesized and submitted to the final screening (FIG. 5. S4 (a)). […]
The screening was performed by an ELISA (Enzime-Linked Immunosorbent Assay) assay. […] Finally, the plate was developed with o-phenylendiammine peroxidase substrate (Sigma-Aldrich) and the absorbance was read at 490 nm on a microplate reader (Biorad Benchmark). […]

[1] = tested on: Cripto-induced Smad2 phosphorylation; test: Smad2 phosphorylation assay (Western blot) in cripto-/- embryoid bodies; format: cell-based, mouse
Procedure: Two day-old cripto^−/− Embryoid Bodies (EBs) were serum starved for 3 hrs in DMEM (GIBCO) without LIF and in low serum (0.5% FBS). Following starvation, EBs were incubated for 20 min at 37° C. with recombinant Cripto protein (0.5 µg/ml) either alone or in the presence of the indicated amount of peptides. Finally, EBs were dissolved in Laemmli lysis buffer and analyzed by Western blot using the Trans-Blot Semi-dry System (BIO-RAD), following manufacturer's instruction. Anti-Smad2 and anti-phospho-Smad2 (Ser465/467) Antibodies (Cell Signalling Technology) were used, following the manufacturer's instructions.

R1 ESC = test: Dopaminergic differentiation of ESCs on PA6 stromal cells; format: cell-based, mouse
Procedure: For more specific dopaminergic differentiation, R1 ESC were plated on a confluent monolayer of mitomycin-C treated (2 hour, 20 ug/ml, Sigma) stromal PA6 cells (Riken Cell Bank) at a density of 100 cells/cm^2 and differentiated based on the methods of Barberi et al, 2003 with the following modifications, FIG. 7(a)^27. Cells were initially cultured in serum-replacement media (Dulbecco's modified Eagle medium with 15% serum replacement, 2 mM L-glutamine and 10 uM β-mercaptoethanol, Gibco-Invitrogen) containing Noggin (300 ng/ml, R&D Systems). After 5 days the media was replenished and supplemented with Noggin plus morphogens fibroblast growth factor-8 (FGF8, 100 ng/ml) and Sonic Hedgehog (Shh, 500 ng/ml), previously shown to be important in midbrain DA neuron development. At day 8, cultures were changed into N2 media (a 1:1 mixture of F12 and MEM with 15 mM HEPES buffer, 1 mM glutamine, 6 mg/ml glucose (Sigma-Aldrich), 3 mg/ml Albumax and N2 supplement (all purchased from Invitrogen)) supplemented with FGF2 (20 ng/ml), Shh, FGF8 and Wnt5a (previously shown to be important in the differentiation of dopaminergic precursors in vitro and in vivo^25, 56. Finally at day 11, cultures were exposed to survival factors brain derived neurotrophic factor (BDNF, 30 ng/ml), glial derived neurotrophic factor (GDNF, 30 ng/ml) and ascorbic acid (AA, 100 uM). In addition, peptides (Control peptide, CP; Dimer peptide, DP or Cripto Blocking peptide, Cripto BP, 12.5 uM) were added to the cultures from day 1-11. Peptides were replenished in the media every second day.
Hoescht counterstaining was used for visualization of all cells within the cultures. The proportion of neuron containing colonies (labeled for using the immature neuronal marker βIII-tubulin (Tuj1)) and the number of dopaminergic neurons/μm^2 colony (identified using a marker for the precursor enzyme in DA synthesis, TH) were counted. Differentiation experiments were performed in triplicate.
The authors next examined whether DA differentiation could be promoted. To this end, the authors used a DA differentiation protocol involving co-culturing on stromal cells^27, to which additional modifications were incorporated (FIG. 7a). In brief, ESCs were plated at low density onto stromal cells (PA6) for a period of 5 days, to promote neural induction. From day 0-8, cultures were treated with noggin to enhance neuronal induction. From day 8-11, cultures where changed into neuronal (N2) media in the presence of Shh and FGF-8 (for ventral midbrain patterning) and basic FGF (to expand the pool of DA precursors), as well as Wnt5a (involved in DA neuron differentiation in vitro and in vivo^25, 43). Control peptide (CP) or Cripto BP (BP) were added to the differentiating ESCs from day 1 to day 11. […]

[2] = peptide 12.5 uM day 1-11, 14 days on PA6

T1 sequence (P51865 18-156 limits assumed): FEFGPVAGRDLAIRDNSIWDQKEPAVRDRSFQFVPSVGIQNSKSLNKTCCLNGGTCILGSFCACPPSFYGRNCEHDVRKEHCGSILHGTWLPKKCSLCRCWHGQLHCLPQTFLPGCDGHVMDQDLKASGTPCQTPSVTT

## C[S+]([O-])CCC(N)C(=O)N[C@@H](CSCc1ccccc1)C(=O)N[C@@H](CSCc1ccccc1)C(=O)N[C@@H](CCCCNC(=O)[C@H](CSCc1ccccc1)NC(=O)[C@H](CSCc1ccccc1)NC(=O)[C@@H](N)CC[S+](C)[O-])C(=O)N[C@@H](CCCCNC(=O)[C@H](CCCCNC(=O)[C@H](CSCc1ccccc1)NC(=O)[C@H](CSCc1ccccc1)NC(=O)[C@@H](N)CC[S+](C)[O-])NC(=O)[C@H](CSCc1ccccc1)NC(=O)[C@H](CSCc1ccccc1)NC(=O)[C@@H](N)CC[S+](C)[O-])C(=O)NCC(=O)O (some centres unmarked) [Cripto BP]
Cripto/ALK-4 interaction; 30 single peptides B-23-23, 500- to 4000-fold excess, confirmed with HPLC purified molecule
  inhibitory activity in final library screening: optimal inhibitory activity
Cripto/ALK-4 interaction; estimated, ELISA competition, FIG. 1b, read-out: IC50 for blocking the interaction of Cripto and ALK-4
  IC50: 400 nM
[1]; 2 day-old cripto−/− EBs, Cripto 0.5 μg/ml, peptide 2.5 μM and 25 μM
  effect on Cripto-induced Smad2 phosphorylation: inhibited
[1]; peptide 25 μM (125× molar excess)
  effect on Cripto-induced Smad2 phosphorylation: completely blocked
R1 ESC; Noggin and Wnt5a in conjunction with Cripto BP
  yield of DA neurons derived from wildtype ESCs: enhanced further
R1 ESC; peptide 12.5 uM day 1-11
  DA neurons per TH-ir colony: 286 % greater than control
R1 ESC; [2]
  colonies immunoreactive for βIII-tubulin: 91%
  proportion of colonies containing TH-ir DA neurons: 62%
